Literature values as cited in US20240366562A1, “GYNECOMASTIA AND/OR MASTALGIA TREATMENT” (priority 2021, published 2024).
Values belong to the molecule of their own block, whether it stands above or below them.

Tests used:
mammary tumors = conditions: rodents
estrogen receptor = biological target: T1, estrogen receptor (Homo sapiens, UniProt P03372)
T1 sequence (P03372 1-595): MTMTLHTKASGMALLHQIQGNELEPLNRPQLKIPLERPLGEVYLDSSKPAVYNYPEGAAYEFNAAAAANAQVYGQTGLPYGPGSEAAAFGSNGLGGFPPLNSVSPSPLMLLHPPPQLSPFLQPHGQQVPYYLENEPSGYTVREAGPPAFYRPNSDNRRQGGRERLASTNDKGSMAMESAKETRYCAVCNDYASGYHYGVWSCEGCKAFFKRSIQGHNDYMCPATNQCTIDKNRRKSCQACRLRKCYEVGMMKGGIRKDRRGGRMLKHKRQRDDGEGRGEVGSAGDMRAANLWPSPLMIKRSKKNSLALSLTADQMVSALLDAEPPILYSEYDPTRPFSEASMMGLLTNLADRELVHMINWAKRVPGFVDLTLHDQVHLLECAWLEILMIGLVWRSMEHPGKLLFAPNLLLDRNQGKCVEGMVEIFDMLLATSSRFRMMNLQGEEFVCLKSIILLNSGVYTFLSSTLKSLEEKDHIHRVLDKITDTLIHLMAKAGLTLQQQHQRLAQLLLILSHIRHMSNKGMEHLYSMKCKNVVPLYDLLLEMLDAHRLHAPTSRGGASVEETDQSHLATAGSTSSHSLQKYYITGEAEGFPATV

[1] = human subjects who ingested I3C
[2] = tested on: estrogen-dependent human MCF-7 breast cancer cell line
[3] = women taking Tamoxifen

Competition with estrogen for estrogen receptor binding (estrogen receptor): fail to compete
Structure (SMILES): OCc1c[nH]c2ccccc12 [Compound I3C, Indole-3-carbinole]
Formation of spontaneous and carcinogen-induced mammary tumors (mammary tumors): reduce the formation | Side effects (mammary tumors): no apparent side effects | Side effects [1]: no side effects | Competes with estrogen (estrogen pathway): no | Enhances 2HE1 excretion (estrogen pathway): yes | Inhibits estrogen synthesis (estrogen pathway): yes | Lowers circulating estrogen (estrogen pathway): yes | Triggers degradation of ERα (estrogen pathway): yes | Expression of CDK6 [2]: down-regulates

Tamoxifen metabolites [3]: decreases in Tamoxifen metabolites
Structure (SMILES): c1ccc2c(Cc3c[nH]c4ccccc34)c[nH]c2c1 [DIM, 3,3′-diindolylmethane]

Structure (SMILES): CC/C(=C(\c1ccccc1)c1ccc(OCCN(C)C)cc1)c1ccccc1 [Tamoxifen, reference compound]
Competes with estrogen (estrogen pathway): yes | Enhances 2HE1 excretion (estrogen pathway): no | Inhibits estrogen synthesis (estrogen pathway): no | Lowers circulating estrogen (estrogen pathway): no | Triggers degradation of ERα (estrogen pathway): no
